# Laboratory results: paper PMC5216056 (Nature Communications, 2017)
# Like-named read-outs stand apart in the source and are kept apart here.
# Columns and labels:
# [1] = biological target: T1, hCB2R (Homo sapiens, UniProt P34972); parameters: expressed in transfected cells; host or cells: Flp-In-293 (Invitrogen #R750-07), pcDNA5/FRT
# [2] = biological target: T2, mCB1R (Mus musculus, UniProt P47746); assay: biochemical; assay type: binding
# T2 construct: from tissue; host or cells: brain of male C57BL/6J mice
# [3] = biological target: T1, hCB2R; assay: biochemical; assay type: binding
# [4] = biological target: T3, hCB1R (Homo sapiens, UniProt P21554); assay: biochemical; assay type: binding
# T3 construct: host or cells: CHO
# [5] = biological target: T4, hABHD12 (Homo sapiens, UniProt Q8N2K0); assay: ABHD12 activity; assay type: biochemical; details: single point, 10 5 µM [sic]
# T4 construct: expressed in transfected cells
# T4 sequence (Q8N2K0 1-398): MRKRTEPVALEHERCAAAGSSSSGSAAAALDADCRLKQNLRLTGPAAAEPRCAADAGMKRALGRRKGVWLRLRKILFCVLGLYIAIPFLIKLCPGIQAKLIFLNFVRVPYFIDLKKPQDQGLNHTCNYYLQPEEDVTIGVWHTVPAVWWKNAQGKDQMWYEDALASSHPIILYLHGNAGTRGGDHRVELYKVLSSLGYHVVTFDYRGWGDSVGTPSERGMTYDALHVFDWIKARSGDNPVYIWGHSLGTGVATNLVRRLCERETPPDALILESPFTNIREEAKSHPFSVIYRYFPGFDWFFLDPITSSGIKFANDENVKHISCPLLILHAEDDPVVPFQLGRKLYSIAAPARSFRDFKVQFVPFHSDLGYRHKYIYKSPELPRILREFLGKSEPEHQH
# From the text: HEK293T cells were obtained from American Type Culture Collection (ATCC, Manassas, VA, USA). Lipofectamine 2000 was obtained from Life Technologies (Carlsbad, CA, USA) and geneticin from InvivoGen. Cell culture medium, FBS, and cell culture supplements were from Invitrogen (Carlsbad, CA, USA). pCMV6-AC-hABHD6 and pCMV6-XL4-hABHD12 were a kind gift from Prof Jarmo T. Laitinen. hABHD12 sequence was subsequently inserted in a pcDNA3.1 plasmid in order to generate a stable cell line. The effect of CB2R ligands on ABHD6 and ABHD12 hydrolytic activity was determined using cell homogenate from hABHD6 and hABHD12 overexpressing HEK293T cells (40 μg total protein per condition). Samples were pre-incubated with the compounds (10 μM in the screening assay and concentrations in the range 1 nM—50 μM for the dose-response curves) in […] (pH=7.6) buffer containing 0.1%(w/v) BSA. DMSO was used as vehicle control and WWL70 10 μM or THL 20 μM as positive controls. [^3H]-2-OG (10 μM final concentration) was added and after incubation of 5 min at 37 °C, the reaction was stopped by the addition of 400 μl of ice-cold CHCl3:MeOH (1:1). The samples were vortex and centrifuged (16,100g 10 min 4 °C). Aliquots (200 μl) of the aqueous phase were assayed for tritium content by liquid scintillation spectroscopy. The values obtained for each measurement were corrected for non-specific hydrolysis (non-ABHD6 mediated) by subtracting the signal obtained in the hydrolysis of [^3H]- 2-OG by non-transfected HEK293T.
# [6] = biological target: T5, Rat recombinant TRPM8 (Rattus norvegicus, UniProt Q8R455); assay: TRP channel [Ca2+]i assay; assay type: cell-based; details: read-out: TRPM8 IC50 for antagonism of icilin
# T5 construct: expressed in transfected cells; host or cells: HEK293 (TRPM8-HEK-293, gift from Mario van der Stelt)
# [7] = biological target: T6, alpha 1A (h) (Homo sapiens, UniProt P35348); assay: CEREP panel; assay type: binding; details: 10 µM
# T6 construct: CEREP
# T6 sequence (P35348 1-466): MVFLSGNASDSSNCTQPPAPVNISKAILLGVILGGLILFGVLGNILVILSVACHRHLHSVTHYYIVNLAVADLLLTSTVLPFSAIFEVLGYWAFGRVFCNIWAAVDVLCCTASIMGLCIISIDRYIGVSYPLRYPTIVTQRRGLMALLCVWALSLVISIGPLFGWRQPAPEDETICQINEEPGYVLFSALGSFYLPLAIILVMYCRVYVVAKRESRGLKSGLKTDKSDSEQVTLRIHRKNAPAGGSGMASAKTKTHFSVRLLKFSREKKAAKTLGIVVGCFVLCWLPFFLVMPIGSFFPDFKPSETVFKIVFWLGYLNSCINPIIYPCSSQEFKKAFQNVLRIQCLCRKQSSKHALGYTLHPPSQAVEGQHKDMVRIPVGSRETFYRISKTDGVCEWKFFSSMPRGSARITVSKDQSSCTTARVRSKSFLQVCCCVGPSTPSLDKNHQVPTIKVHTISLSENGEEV
# [8] = vs icilin 0.1μM (second value in cell)
# T2 sequence (P47746 whole entry): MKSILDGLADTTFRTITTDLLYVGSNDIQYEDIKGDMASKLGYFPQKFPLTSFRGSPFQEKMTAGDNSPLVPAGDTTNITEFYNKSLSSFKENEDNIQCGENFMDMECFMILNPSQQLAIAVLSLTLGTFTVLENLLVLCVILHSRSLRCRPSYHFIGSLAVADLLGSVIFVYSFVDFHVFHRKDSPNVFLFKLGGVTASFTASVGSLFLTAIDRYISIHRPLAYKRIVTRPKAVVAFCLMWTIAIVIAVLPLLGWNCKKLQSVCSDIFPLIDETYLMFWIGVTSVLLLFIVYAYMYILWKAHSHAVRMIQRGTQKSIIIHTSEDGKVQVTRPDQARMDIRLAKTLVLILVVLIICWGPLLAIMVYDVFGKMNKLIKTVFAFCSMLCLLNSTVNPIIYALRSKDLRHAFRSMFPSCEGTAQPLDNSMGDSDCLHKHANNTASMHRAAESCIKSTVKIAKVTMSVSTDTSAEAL
# T5 sequence (Q8R455 whole entry): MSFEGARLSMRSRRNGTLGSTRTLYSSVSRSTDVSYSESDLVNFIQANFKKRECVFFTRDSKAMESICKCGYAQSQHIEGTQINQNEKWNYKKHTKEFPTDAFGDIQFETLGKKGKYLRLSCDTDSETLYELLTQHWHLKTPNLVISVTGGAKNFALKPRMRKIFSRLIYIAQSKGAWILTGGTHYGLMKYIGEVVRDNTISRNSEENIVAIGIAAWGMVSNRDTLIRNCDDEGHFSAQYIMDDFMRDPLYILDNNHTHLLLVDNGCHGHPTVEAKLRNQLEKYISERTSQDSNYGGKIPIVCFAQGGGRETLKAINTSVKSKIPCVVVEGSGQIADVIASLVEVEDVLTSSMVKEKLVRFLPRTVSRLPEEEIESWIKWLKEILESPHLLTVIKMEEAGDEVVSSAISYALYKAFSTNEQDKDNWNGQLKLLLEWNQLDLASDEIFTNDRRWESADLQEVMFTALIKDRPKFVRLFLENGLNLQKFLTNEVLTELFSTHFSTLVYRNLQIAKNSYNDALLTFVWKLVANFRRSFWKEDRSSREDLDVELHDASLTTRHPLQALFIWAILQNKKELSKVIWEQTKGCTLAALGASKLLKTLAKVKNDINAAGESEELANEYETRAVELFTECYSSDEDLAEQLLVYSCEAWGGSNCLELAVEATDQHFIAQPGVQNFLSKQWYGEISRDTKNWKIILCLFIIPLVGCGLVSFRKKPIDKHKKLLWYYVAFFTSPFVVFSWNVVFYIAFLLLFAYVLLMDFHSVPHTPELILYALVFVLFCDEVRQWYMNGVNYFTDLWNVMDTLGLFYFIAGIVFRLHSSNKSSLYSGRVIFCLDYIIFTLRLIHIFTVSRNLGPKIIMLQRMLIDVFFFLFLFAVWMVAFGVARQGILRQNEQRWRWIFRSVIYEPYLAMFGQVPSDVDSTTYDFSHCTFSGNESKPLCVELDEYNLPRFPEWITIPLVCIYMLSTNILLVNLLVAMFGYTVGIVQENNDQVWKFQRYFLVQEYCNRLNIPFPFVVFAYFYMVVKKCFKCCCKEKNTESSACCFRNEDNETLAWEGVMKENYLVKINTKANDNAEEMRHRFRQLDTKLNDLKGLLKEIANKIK
# T1 sequence (P34972 whole entry): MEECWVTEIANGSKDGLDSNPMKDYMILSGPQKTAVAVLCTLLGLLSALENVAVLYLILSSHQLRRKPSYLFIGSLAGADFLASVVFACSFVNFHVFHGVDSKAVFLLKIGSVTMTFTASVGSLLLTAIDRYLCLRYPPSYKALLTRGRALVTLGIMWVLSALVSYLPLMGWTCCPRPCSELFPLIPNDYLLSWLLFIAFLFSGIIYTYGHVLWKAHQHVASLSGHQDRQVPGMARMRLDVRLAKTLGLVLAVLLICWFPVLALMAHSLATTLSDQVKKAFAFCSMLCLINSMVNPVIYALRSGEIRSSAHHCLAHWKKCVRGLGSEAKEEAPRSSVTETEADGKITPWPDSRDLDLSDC
# T3 sequence (P21554 whole entry): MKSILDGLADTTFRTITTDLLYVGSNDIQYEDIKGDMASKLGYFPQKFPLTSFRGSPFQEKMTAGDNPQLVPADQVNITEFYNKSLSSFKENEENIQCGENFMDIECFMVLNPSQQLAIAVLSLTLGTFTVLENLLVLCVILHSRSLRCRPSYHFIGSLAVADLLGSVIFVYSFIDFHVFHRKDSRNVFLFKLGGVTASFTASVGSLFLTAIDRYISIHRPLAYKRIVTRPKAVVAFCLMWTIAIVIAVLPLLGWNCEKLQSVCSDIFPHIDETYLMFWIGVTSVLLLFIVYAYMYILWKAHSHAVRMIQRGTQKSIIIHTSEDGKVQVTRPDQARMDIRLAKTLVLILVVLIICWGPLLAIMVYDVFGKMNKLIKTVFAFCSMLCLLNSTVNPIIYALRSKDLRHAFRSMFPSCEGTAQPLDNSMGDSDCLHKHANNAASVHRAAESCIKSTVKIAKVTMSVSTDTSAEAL
structure (smiles),measurement,setting,value
"CCCCC/C=C\C/C=C\C/C=C\C/C=C\CCCC(=O)NCCO [Anandamide, N-arachidonoylethanolamine]",GIRK-GTPγS bias factor (BF),[1]; hCB2R,2.57
same,GIRK-GTPγS ΔΔlogR,[1]; hCB2R,0.41 ± 0.65
same,GIRK-cAMP bias factor (BF),[1]; hCB2R,26.36
same,GIRK-cAMP ΔΔlogR,[1]; hCB2R,1.42 ± 0.34
same,GTPγS-cAMP bias factor (BF),[1]; hCB2R,10.26
same,GTPγS-cAMP ΔΔlogR,[1]; hCB2R,1.01 ± 0.41
same,LogR GIRK,[1]; hCB2R,4.53
same,LogR GTPγS,[1]; hCB2R,4.54
same,LogR cAMP,[1]; hCB2R,5.96
same,LogR pERK,[1]; hCB2R,6.03
same,LogR β-AR,[1]; hCB2R,5.54
same,pERK-GIRK bias factor (BF),[1]; hCB2R,2.14
same,pERK-GIRK ΔΔlogR,[1]; hCB2R,0.33 ± 0.43
same,pERK-GTPγS bias factor (BF),[1]; hCB2R,5.50
same,pERK-GTPγS ΔΔlogR,[1]; hCB2R,0.74 ± 0.66
same,pERK-cAMP bias factor (BF),[1]; hCB2R,56.36
same,pERK-cAMP ΔΔlogR,[1]; hCB2R,1.75 ± 0.37
same,β-AR-GIRK bias factor (BF),[1]; hCB2R,2.37
same,β-AR-GIRK ΔΔlogR,[1]; hCB2R,0.38 ± 0.37
same,β-AR-GTPγS bias factor (BF),[1]; hCB2R,6.10
same,β-AR-GTPγS ΔΔlogR,[1]; hCB2R,0.79 ± 0.62
same,β-AR-cAMP bias factor (BF),[1]; hCB2R,62.52
same,β-AR-cAMP ΔΔlogR,[1]; hCB2R,1.80 ± 0.29
same,β-AR-pERK bias factor (BF),[1]; hCB2R,1.11
same,β-AR-pERK ΔΔlogR,[1]; hCB2R,0.04 ± 0.39
same,ΔLogR GIRK,"[1]; hCB2R, reference CP55940",-3.33
same,ΔLogR GTPγS,"[1]; hCB2R, reference CP55940",-3.74
same,ΔLogR cAMP,"[1]; hCB2R, reference CP55940",-4.76
same,ΔLogR pERK,"[1]; hCB2R, reference CP55940",-3 ± 0.32
same,ΔLogR β-AR,"[1]; hCB2R, reference CP55940",-2.96
same,RE GIRK,"[1]; hCB2R, relative effectiveness",0.005
same,RE GTPγS,"[1]; hCB2R, relative effectiveness",0.0002
same,RE cAMP,"[1]; hCB2R, relative effectiveness",0.00002
same,RE pERK,"[1]; hCB2R, relative effectiveness",0.001
same,RE β-AR,"[1]; hCB2R, relative effectiveness",0.001
CN1CCCCC1Cn1cc(C(=O)c2cc([N+](=O)[O-])ccc2I)c2ccccc21 (racemic) [(rac)-AM1241],pKi ± SEM mCB1R,[2],5.91 ± 0.16
same,"CB2R Selectivity (binding, human)",[3],32
same,pKi ± SEM hCB2R,"[3]; CHO membranes, Leiden, HU210 and SR144528 from Roche",8.39 ± 0.10
same,pKi ± SEM hCB1R,[4],6.89 ± 0.31
same,GIRK-GTPγS bias factor (BF),[1]; hCB2R,1.08
same,GIRK-GTPγS ΔΔlogR,[1]; hCB2R,0.03 ± 0.46
same,LogR GIRK,[1]; hCB2R,5.52
same,LogR GTPγS,[1]; hCB2R,5.9
same,LogR pERK,[1]; hCB2R,8.67
same,LogR β-AR,[1]; hCB2R,7.95
same,pERK-GIRK bias factor (BF),[1]; hCB2R,95.72
same,pERK-GIRK ΔΔlogR,[1]; hCB2R,1.98 ± 0.71
same,pERK-GTPγS bias factor (BF),[1]; hCB2R,103.28
same,pERK-GTPγS ΔΔlogR,[1]; hCB2R,2.01 ± 0.8
same,β-AR-GIRK bias factor (BF),[1]; hCB2R,62.37
same,β-AR-GIRK ΔΔlogR,[1]; hCB2R,1.8 ± 0.49
same,β-AR-GTPγS bias factor (BF),[1]; hCB2R,68.30
same,β-AR-GTPγS ΔΔlogR,[1]; hCB2R,1.83 ± 0.61
same,β-AR-pERK bias factor (BF),[1]; hCB2R,0.65
same,β-AR-pERK ΔΔlogR,[1]; hCB2R,-0.19 ± 0.81
same,ΔLogR GIRK,"[1]; hCB2R, reference CP55940",-2.35
same,ΔLogR GTPγS,"[1]; hCB2R, reference CP55940",-2.38
same,ΔLogR pERK,"[1]; hCB2R, reference CP55940",-0.37
same,ΔLogR β-AR,"[1]; hCB2R, reference CP55940",-0.55
same,RE GIRK,"[1]; hCB2R, relative effectiveness",0.004
same,RE GTPγS,"[1]; hCB2R, relative effectiveness",0.004
same,RE pERK,"[1]; hCB2R, relative effectiveness",0.43
same,RE β-AR,"[1]; hCB2R, relative effectiveness",0.28
Cc1c(C(=O)c2cccc3ccccc23)c2cccc3c2n1[C@H](CN1CCOCC1)CO3 [WIN55212-2],ABHD12 % inhibition,[5],< 50%
same,IC50,[6]; [8],19 ± 2.2 µM
same,IC50,[6]; vs icilin […],72.9 ± 4.5 µM
same,% inhibition alpha 1A (h),[7],15%
CCCCCCC(C)(C)c1ccc([C@@H]2C[C@H](O)CC[C@H]2CCCO)c(O)c1 [CP55940],Ki,[2],0.00158 µM
same,inhibition at 10 µM,[7]; read-out: % inhibition alpha 1A (h),57%
same,GIRK-GTPγS bias factor (BF),[1],1.00
same,GIRK-GTPγS ΔΔlogR,[1],0 ± 0.34
same,GIRK-cAMP bias factor (BF),[1],1.00
same,GIRK-cAMP ΔΔlogR,[1],0 ± 0.12
same,GTPγS-cAMP bias factor (BF),[1],1.00
same,GTPγS-cAMP ΔΔlogR,[1],0 ± 0.34
same,LogR GIRK,[1],7.863
same,RE GIRK,[1],1.00
same,RE GTPγS,[1],1.00
same,RE cAMP,[1],1.00
same,RE pERK,[1],1.00
same,RE β-AR,[1],1.00
same,pERK-GIRK bias factor (BF),[1],1.00
same,pERK-GIRK ΔΔlogR,[1],0 ± 0.25
same,pERK-GTPγS bias factor (BF),[1],1.00
same,pERK-GTPγS ΔΔlogR,[1],0 ± 0.41
same,pERK-cAMP bias factor (BF),[1],1.00
same,pERK-cAMP ΔΔlogR,[1],0 ± 0.26
same,ΔLogR GIRK,[1],0 ± 0.07
same,ΔLogR GTPγS,[1],0 ± 0.33
same,ΔLogR cAMP,[1],0 ± 0.09
same,ΔLogR pERK,[1],0 ± 0.24
same,ΔLogR β-AR,[1],0 ± 0.07
same,β-AR-GIRK bias factor (BF),[1],1.00
same,β-AR-GIRK ΔΔlogR,[1],0 ± 0.1
same,β-AR-GTPγS bias factor (BF),[1],1.00
same,β-AR-GTPγS ΔΔlogR,[1],0 ± 0.34
same,β-AR-cAMP bias factor (BF),[1],1.00
same,β-AR-cAMP ΔΔlogR,[1],0 ± 0.12
same,β-AR-pERK bias factor (BF),[1],1.00
same,β-AR-pERK ΔΔlogR,[1],0 ± 0.25
COc1ccc(C(=O)c2c(C)n(CCN3CCOCC3)c3cc(I)ccc23)cc1 [AM630],ABHD12 % inhibition,[5],< 25%
same,pKi ± SEM mCB1R,[2]; mouse brain membranes,5.6 ± 0.298
same,pKi ± SEM hCB2R,[3],7.39 ± 0.02
same,IC50,[6]; [8],1.9 ± 0.1 µM
same,IC50,[6]; vs icilin […],4.3 ± 0.3 µM
same,% inhibition alpha 1A (h),[7],47%
